# Reference: the CheMixHub viscosity set
# ± gives the uncertainty stated by the source.
# Experiment: xn = mol fraction of the nth substance listed
# Details: 101 kPa
structure (smiles),measurement,setting,value
CCCCCCCCC + CC1CCCCC1,viscosity,"293.15 K, x2 = 0.0426",0.7162 ± 0.006 mPa·s
same,viscosity,"293.15 K, x2 = 0.1496",0.7103 ± 0.0062 mPa·s
same,viscosity,"293.15 K, x2 = 0.2805",0.7065 ± 0.0065 mPa·s
same,viscosity,"293.15 K, x2 = 0.3606",0.7056 ± 0.0067 mPa·s
same,viscosity,"293.15 K, x2 = 0.4418",0.707 ± 0.0069 mPa·s
same,viscosity,"293.15 K, x2 = 0.5953",0.7117 ± 0.0073 mPa·s
same,viscosity,"293.15 K, x2 = 0.6794",0.7158 ± 0.0076 mPa·s
same,viscosity,"293.15 K, x2 = 0.7579",0.7196 ± 0.0079 mPa·s
same,viscosity,"293.15 K, x2 = 0.8388",0.7243 ± 0.0082 mPa·s
same,viscosity,"293.15 K, x2 = 0.9078",0.7296 ± 0.0084 mPa·s
same,viscosity,"298.15 K, x2 = 0.0426",0.6637 ± 0.0056 mPa·s
same,viscosity,"298.15 K, x2 = 0.1052",0.664 ± 0.013 mPa·s
same,viscosity,"298.15 K, x2 = 0.1496",0.6606 ± 0.0058 mPa·s
same,viscosity,"298.15 K, x2 = 0.198",0.66 ± 0.013 mPa·s
same,viscosity,"298.15 K, x2 = 0.2805",0.6594 ± 0.0061 mPa·s
same,viscosity,"298.15 K, x2 = 0.299",0.658 ± 0.013 mPa·s
same,viscosity,"298.15 K, x2 = 0.3606",0.66 ± 0.0063 mPa·s
same,viscosity,"298.15 K, x2 = 0.4018",0.659 ± 0.012 mPa·s
same,viscosity,"298.15 K, x2 = 0.4418",0.6607 ± 0.0065 mPa·s
same,viscosity,"298.15 K, x2 = 0.4978",0.659 ± 0.012 mPa·s
same,viscosity,"298.15 K, x2 = 0.5953",0.6639 ± 0.0069 mPa·s
same,viscosity,"298.15 K, x2 = 0.5982",0.661 ± 0.012 mPa·s
same,viscosity,"298.15 K, x2 = 0.6794",0.6669 ± 0.0072 mPa·s
same,viscosity,"298.15 K, x2 = 0.6991",0.662 ± 0.012 mPa·s
same,viscosity,"298.15 K, x2 = 0.7579",0.6709 ± 0.0074 mPa·s
same,viscosity,"298.15 K, x2 = 0.7995",0.665 ± 0.012 mPa·s
same,viscosity,"298.15 K, x2 = 0.8388",0.6757 ± 0.0077 mPa·s
same,viscosity,"298.15 K, x2 = 0.9012",0.671 ± 0.012 mPa·s
same,viscosity,"298.15 K, x2 = 0.9078",0.6788 ± 0.0079 mPa·s
same,viscosity,"303.15 K, x2 = 0.0426",0.6214 ± 0.0054 mPa·s
same,viscosity,"303.15 K, x2 = 0.1052",0.625 ± 0.012 mPa·s
same,viscosity,"303.15 K, x2 = 0.1496",0.6176 ± 0.0055 mPa·s
same,viscosity,"303.15 K, x2 = 0.198",0.614 ± 0.012 mPa·s
same,viscosity,"303.15 K, x2 = 0.2805",0.6151 ± 0.0058 mPa·s
same,viscosity,"303.15 K, x2 = 0.299",0.616 ± 0.012 mPa·s
same,viscosity,"303.15 K, x2 = 0.3606",0.6148 ± 0.006 mPa·s
same,viscosity,"303.15 K, x2 = 0.4018",0.616 ± 0.012 mPa·s
same,viscosity,"303.15 K, x2 = 0.4418",0.6168 ± 0.0062 mPa·s
same,viscosity,"303.15 K, x2 = 0.4978",0.617 ± 0.012 mPa·s
same,viscosity,"303.15 K, x2 = 0.5953",0.6225 ± 0.0066 mPa·s
same,viscosity,"303.15 K, x2 = 0.5982",0.62 ± 0.012 mPa·s
same,viscosity,"303.15 K, x2 = 0.6794",0.6292 ± 0.0068 mPa·s
same,viscosity,"303.15 K, x2 = 0.6991",0.618 ± 0.011 mPa·s
same,viscosity,"303.15 K, x2 = 0.7579",0.6339 ± 0.0071 mPa·s
same,viscosity,"303.15 K, x2 = 0.7995",0.62 ± 0.011 mPa·s
same,viscosity,"303.15 K, x2 = 0.8388",0.6383 ± 0.0073 mPa·s
same,viscosity,"303.15 K, x2 = 0.9012",0.626 ± 0.011 mPa·s
same,viscosity,"303.15 K, x2 = 0.9078",0.6428 ± 0.0075 mPa·s
same,viscosity,"308.15 K, x2 = 0.1052",0.585 ± 0.012 mPa·s
same,viscosity,"308.15 K, x2 = 0.198",0.58 ± 0.011 mPa·s
same,viscosity,"308.15 K, x2 = 0.299",0.578 ± 0.011 mPa·s
same,viscosity,"308.15 K, x2 = 0.4018",0.577 ± 0.011 mPa·s
same,viscosity,"308.15 K, x2 = 0.4978",0.577 ± 0.011 mPa·s
same,viscosity,"308.15 K, x2 = 0.5982",0.578 ± 0.011 mPa·s
same,viscosity,"308.15 K, x2 = 0.6991",0.58 ± 0.011 mPa·s
same,viscosity,"308.15 K, x2 = 0.7995",0.582 ± 0.011 mPa·s
same,viscosity,"308.15 K, x2 = 0.9012",0.587 ± 0.011 mPa·s
C1COCO1 + CC(C)O,viscosity,"303.15 K, x1 = 0.08269",1.212 ± 0.021 mPa·s
same,viscosity,"303.15 K, x1 = 0.1686",0.9776 ± 0.021 mPa·s
same,viscosity,"303.15 K, x1 = 0.258",0.8386 ± 0.021 mPa·s
same,viscosity,"303.15 K, x1 = 0.351",0.7477 ± 0.021 mPa·s
same,viscosity,"303.15 K, x1 = 0.4479",0.6645 ± 0.02 mPa·s
same,viscosity,"303.15 K, x1 = 0.5489",0.6082 ± 0.02 mPa·s
same,viscosity,"303.15 K, x1 = 0.6543",0.6033 ± 0.02 mPa·s
same,viscosity,"303.15 K, x1 = 0.7644",0.5856 ± 0.02 mPa·s
same,viscosity,"303.15 K, x1 = 0.8795",0.5637 ± 0.02 mPa·s
C1COCO1 + CCCCO,viscosity,"298.15 K, x1 = 0.1022",1.884 ± 0.014 mPa·s
same,viscosity,"298.15 K, x1 = 0.1981",1.493 ± 0.013 mPa·s
same,viscosity,"298.15 K, x1 = 0.3055",1.201 ± 0.012 mPa·s
same,viscosity,"298.15 K, x1 = 0.4054",1.014 ± 0.012 mPa·s
same,viscosity,"298.15 K, x1 = 0.5008",0.8912 ± 0.012 mPa·s
same,viscosity,"298.15 K, x1 = 0.6035",0.7757 ± 0.011 mPa·s
same,viscosity,"298.15 K, x1 = 0.7024",0.6998 ± 0.011 mPa·s
same,viscosity,"298.15 K, x1 = 0.8009",0.6441 ± 0.011 mPa·s
same,viscosity,"298.15 K, x1 = 0.9002",0.6073 ± 0.011 mPa·s
same,viscosity,"303.15 K, x1 = 0.1001",1.74 ± 0.023 mPa·s
same,viscosity,"303.15 K, x1 = 0.2001",1.373 ± 0.022 mPa·s
same,viscosity,"303.15 K, x1 = 0.3001",1.113 ± 0.021 mPa·s
same,viscosity,"303.15 K, x1 = 0.4001",0.9587 ± 0.021 mPa·s
same,viscosity,"303.15 K, x1 = 0.5001",0.8419 ± 0.021 mPa·s
same,viscosity,"303.15 K, x1 = 0.6001",0.7305 ± 0.021 mPa·s
same,viscosity,"303.15 K, x1 = 0.7001",0.6582 ± 0.02 mPa·s
same,viscosity,"303.15 K, x1 = 0.8001",0.6192 ± 0.02 mPa·s
same,viscosity,"303.15 K, x1 = 0.9001",0.5873 ± 0.02 mPa·s
same,viscosity,"313.15 K, x1 = 0.1022",1.354 ± 0.013 mPa·s
same,viscosity,"313.15 K, x1 = 0.1981",1.109 ± 0.012 mPa·s
same,viscosity,"313.15 K, x1 = 0.3055",0.9166 ± 0.011 mPa·s
same,viscosity,"313.15 K, x1 = 0.4054",0.7915 ± 0.011 mPa·s
same,viscosity,"313.15 K, x1 = 0.5008",0.7023 ± 0.011 mPa·s
same,viscosity,"313.15 K, x1 = 0.6035",0.6292 ± 0.011 mPa·s
same,viscosity,"313.15 K, x1 = 0.7024",0.5763 ± 0.011 mPa·s
same,viscosity,"313.15 K, x1 = 0.8009",0.5372 ± 0.011 mPa·s
same,viscosity,"313.15 K, x1 = 0.9002",0.5116 ± 0.011 mPa·s
